Here are results for one compound from patent US8278306B2 (Vertex Pharmaceuticals Incorporated, priority 2006, dated 2012).

Molecules are shown by their SMILES. A value given as a limit tells only on which side of the number the result lay.

One assay concerns the target CYP2C9 (Homo sapiens, UniProt P11712). As to the kind of experiment: Cytochrome P450 isozyme inhibition, fluorescent Vivid substrate. It is filed as in vitro ADME. The settings on record: 10 nM CYP2C9, 1 μM Vivid 2C9 Green, 60 minutes. As for the experimental part:
(§1) Selected compounds of the invention were assayed for their ability to inhibit various cytochrome P450 isozymes, such as, for example CYP2D6, CYP2C9, CYP1A2, CYP2C19, CYP3A4, CYP2C9, and CYP3A4 (human liver microsome). Such assays are described by Crespi et al., Anal. Biochem. 248:188-90, 1997; Ekins et al., J. Pharmacol. Exp. Ther. 290, 429-38, 1999; and Ekins et al., J. Pharmacol. Exp. Ther. 291, 424-33, 1999. In a typical isozyme inhibition experiment, test compounds are placed into a microwell on a microtiter plate as an 8 nL solution (2 mM in 75% DMSO/water). The plate is centrifuged for 2 minutes at approximately 1000 rpm to shift the compound to the bottom of the well. Polyvinylpyrrolidone (PVP/10K, 100 nL, 0.2% in 75% DMSO/water) is added to the well and this excipient also centrifuged for 2 minutes at approximately 1000 rpm to ensure mixing with the compound. The plates containing the wells are dried in vacuo. Distilled water (800 nL) is added to the wells containing compound, the background control wells, and the positive control wells, followed by the addition of 200 nL of phosphate buffer (500 mM potassium phosphate butter at pH=8.4). The positive control cells contain a drug such as, for example, miconazole. Insect baculosomes (PanVera P2315) in […] phosphate buffer was added to the background control wells and the plate was scanned for compound fluorescence. […] Therefore, CYP450 isozyme (400 nL) and recycling buffer (3.3 mM glucose-6-phosphate, 0.4 units/mL glucose-6-phosphate dehydrogenase, 100 mM MgCl2, and 0.00025% Antifoam 289) in 100 mM phosphate buffer was added to each well containing compound and background control to obtain the following concentrations: 5 nM CYP3A4, 10 nM CYP2C9, 5 nM CYP1A2, 5 nM CYP2C19, and 20 nM CYP2D6. After incubation for 60 minutes, the wells were read with a fluorescent plate reader.

The next assay has as its target T1, CYP1A2 (Homo sapiens, UniProt P05177).
T1 sequence (P05177 1-516): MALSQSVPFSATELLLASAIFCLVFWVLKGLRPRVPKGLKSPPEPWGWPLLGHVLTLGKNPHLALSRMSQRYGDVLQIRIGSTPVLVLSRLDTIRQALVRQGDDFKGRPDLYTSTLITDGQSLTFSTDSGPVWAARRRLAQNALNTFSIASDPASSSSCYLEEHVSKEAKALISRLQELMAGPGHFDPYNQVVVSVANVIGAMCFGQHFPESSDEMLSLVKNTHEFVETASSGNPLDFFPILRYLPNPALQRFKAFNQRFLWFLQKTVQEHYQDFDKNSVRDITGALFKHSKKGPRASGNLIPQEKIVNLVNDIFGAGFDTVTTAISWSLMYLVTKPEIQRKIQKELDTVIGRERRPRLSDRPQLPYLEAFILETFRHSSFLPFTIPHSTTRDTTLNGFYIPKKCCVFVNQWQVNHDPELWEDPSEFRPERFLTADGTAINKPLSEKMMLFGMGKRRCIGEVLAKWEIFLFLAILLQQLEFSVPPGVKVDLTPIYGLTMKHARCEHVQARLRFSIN
Described as above. It is filed as in vitro ADME. The note with it: 5 nM CYP1A2, 2 μM Vivid 1A2 Blue, 60 minutes. As for the experimental part: as §1

For the next assay, the target named is CYP2D6 (Homo sapiens, UniProt P10635). The description is as above. The settings on record: 20 nM CYP2D6, 10 μM Vivid 2D6 Blue, 60 minutes. It counts as in vitro ADME. The protocol: as §1
Chain of CYP2D6 (P10635 whole entry): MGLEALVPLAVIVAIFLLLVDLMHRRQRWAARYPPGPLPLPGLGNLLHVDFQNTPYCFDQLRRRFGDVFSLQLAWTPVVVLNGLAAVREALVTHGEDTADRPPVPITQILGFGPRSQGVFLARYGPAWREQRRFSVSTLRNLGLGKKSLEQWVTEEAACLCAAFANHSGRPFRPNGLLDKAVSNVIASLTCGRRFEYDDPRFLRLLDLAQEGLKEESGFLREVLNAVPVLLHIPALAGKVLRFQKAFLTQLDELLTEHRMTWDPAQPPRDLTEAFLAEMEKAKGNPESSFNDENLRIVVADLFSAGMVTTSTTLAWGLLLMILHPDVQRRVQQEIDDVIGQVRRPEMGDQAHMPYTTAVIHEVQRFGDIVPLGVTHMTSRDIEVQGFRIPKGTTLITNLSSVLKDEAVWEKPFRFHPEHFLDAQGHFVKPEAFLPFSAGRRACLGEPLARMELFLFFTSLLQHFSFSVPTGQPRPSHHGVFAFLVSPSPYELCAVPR
For another assay, the target named is CYP2C19 (Homo sapiens, UniProt P33261). The description is as above. It is filed as in vitro ADME. The note with it: 5 nM CYP2C19, 10 μM Vivid 2C19 Blue, 60 minutes. As for the experimental part: as §1
Chain of CYP2C19 (P33261 whole entry): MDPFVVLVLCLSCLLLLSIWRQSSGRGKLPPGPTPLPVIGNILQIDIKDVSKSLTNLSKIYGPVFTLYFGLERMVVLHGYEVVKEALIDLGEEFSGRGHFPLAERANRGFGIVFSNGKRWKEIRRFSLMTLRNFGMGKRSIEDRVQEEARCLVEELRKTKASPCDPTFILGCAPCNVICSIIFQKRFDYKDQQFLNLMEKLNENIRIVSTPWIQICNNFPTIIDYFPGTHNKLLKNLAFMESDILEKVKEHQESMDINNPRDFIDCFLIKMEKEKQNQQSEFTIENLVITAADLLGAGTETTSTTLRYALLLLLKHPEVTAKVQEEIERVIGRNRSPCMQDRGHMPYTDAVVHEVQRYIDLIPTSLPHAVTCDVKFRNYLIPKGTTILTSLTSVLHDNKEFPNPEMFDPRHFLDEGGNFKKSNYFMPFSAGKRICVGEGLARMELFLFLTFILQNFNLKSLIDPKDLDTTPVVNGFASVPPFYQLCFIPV
A further assay concerns the target CYP3A4 (Homo sapiens, UniProt P08684). The description is as above. It counts as in vitro ADME. The settings on record: 5 nM CYP3A4, 5 μM Vivid 3A4 Red, 60 minutes. As for the experimental part:
Selected compounds of the invention were assayed for their ability to inhibit various cytochrome P450 isozymes, such as, for example CYP2D6, CYP2C9, CYP1A2, CYP2C19, CYP3A4, CYP2C9, and CYP3A4 (human liver microsome). Such assays are described by Crespi et al., Anal. Biochem. 248:188-90, 1997; Ekins et al., J. Pharmacol. Exp. Ther. 290, 429-38, 1999; and Ekins et al., J. Pharmacol. Exp. Ther. 291, 424-33, 1999. […] The plate is centrifuged for 2 minutes at approximately 1000 rpm to shift the compound to the bottom of the well. […] Distilled water (800 nL) is added to the wells containing compound, the background control wells, and the positive control wells, followed by the addition of 200 nL of phosphate buffer (500 mM potassium phosphate butter at pH=8.4). The positive control cells contain a drug such as, for example, miconazole. Insect baculosomes (PanVera […]) in […] phosphate buffer was added to the background control wells and the plate was scanned for compound fluorescence. […] After incubation for 60 minutes, the wells were read with a fluorescent plate reader.

Assay [1] concerns the target T2, CYP3A4 (human liver microsome) (Homo sapiens, UniProt P08684).
T2 construct: CYP3A4 (human liver microsome); from tissue; host or cells: human liver microsomes
As to the kind of experiment: Cytochrome P450 inhibition, human liver microsome. It counts as in vitro ADME. The note with it: read-out: CYP3A4 (HLM) Ki. As for the experimental part: Selected compounds of the invention were assayed for their ability to inhibit various cytochrome P450 isozymes, such as, for example CYP2D6, CYP2C9, CYP1A2, CYP2C19, CYP3A4, CYP2C9, and CYP3A4 (human liver microsome). Such assays are described by Crespi et al., Anal. Biochem. 248:188-90, 1997; Ekins et al., J. Pharmacol. Exp. Ther. 290, 429-38, 1999; and Ekins et al., J. Pharmacol. Exp. Ther. 291, 424-33, 1999. […] The plate is centrifuged for 2 minutes at approximately 1000 rpm to shift the compound to the bottom of the well. […] Distilled water (800 nL) is added to the wells containing compound, the background control wells, and the positive control wells, followed by the addition of 200 nL of phosphate buffer (500 mM potassium phosphate butter at pH=8.4). The positive control cells contain a drug such as, for example, miconazole. […] After incubation for 60 minutes, the wells were read with a fluorescent plate reader.
For orientation: Liver microsomes are a subcellular fraction often used to study metabolism.

The target in the next assay is T3, ROCK I (AA 6-553) (Homo sapiens, UniProt Q13464).
T3 construct: ROCK I (AA 6-553)
T3 sequence (Q13464 6-553, species assumed): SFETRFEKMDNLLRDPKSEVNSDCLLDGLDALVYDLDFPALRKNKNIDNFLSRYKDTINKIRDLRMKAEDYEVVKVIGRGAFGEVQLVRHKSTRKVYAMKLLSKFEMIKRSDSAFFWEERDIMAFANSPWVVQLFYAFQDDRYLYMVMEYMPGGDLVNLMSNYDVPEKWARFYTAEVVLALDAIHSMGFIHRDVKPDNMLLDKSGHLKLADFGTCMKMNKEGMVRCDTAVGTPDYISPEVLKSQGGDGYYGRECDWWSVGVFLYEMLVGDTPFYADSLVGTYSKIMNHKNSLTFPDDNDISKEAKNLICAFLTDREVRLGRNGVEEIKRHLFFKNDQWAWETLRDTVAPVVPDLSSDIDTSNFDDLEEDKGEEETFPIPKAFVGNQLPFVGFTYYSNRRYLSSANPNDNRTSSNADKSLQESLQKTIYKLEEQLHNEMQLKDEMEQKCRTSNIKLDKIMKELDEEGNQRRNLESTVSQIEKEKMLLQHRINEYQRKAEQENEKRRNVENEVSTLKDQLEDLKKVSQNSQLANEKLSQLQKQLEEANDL
As to the kind of experiment: ROCK inhibition assay, standard coupled enzyme system. The settings on record: 45 nM ROCK I, 45 μM ATP, 200 μM peptide, 30° C. It counts as biochemical. As for the experimental part: Reactions were carried out in a solution containing 100 mM HEPES (pH 7.5), 10 mM MgCl2, 25 mM NaCl, 2 mM DTT and 1.5% DMSO.

Chain of CYP2C9 (P11712 whole entry): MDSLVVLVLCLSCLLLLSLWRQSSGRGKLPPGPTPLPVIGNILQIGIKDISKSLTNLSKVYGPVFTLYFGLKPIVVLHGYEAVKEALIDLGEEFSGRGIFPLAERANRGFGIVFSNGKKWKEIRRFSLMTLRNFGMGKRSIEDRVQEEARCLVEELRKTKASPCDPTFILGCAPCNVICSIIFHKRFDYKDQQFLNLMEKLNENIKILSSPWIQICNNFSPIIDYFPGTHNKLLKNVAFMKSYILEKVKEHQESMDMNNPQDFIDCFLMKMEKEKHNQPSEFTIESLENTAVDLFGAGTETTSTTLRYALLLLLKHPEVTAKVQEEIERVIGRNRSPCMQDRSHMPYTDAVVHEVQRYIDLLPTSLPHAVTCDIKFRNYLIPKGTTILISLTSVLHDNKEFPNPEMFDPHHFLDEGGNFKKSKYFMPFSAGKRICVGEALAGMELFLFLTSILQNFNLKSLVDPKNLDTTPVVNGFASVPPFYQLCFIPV
T2 sequence (P08684 whole entry): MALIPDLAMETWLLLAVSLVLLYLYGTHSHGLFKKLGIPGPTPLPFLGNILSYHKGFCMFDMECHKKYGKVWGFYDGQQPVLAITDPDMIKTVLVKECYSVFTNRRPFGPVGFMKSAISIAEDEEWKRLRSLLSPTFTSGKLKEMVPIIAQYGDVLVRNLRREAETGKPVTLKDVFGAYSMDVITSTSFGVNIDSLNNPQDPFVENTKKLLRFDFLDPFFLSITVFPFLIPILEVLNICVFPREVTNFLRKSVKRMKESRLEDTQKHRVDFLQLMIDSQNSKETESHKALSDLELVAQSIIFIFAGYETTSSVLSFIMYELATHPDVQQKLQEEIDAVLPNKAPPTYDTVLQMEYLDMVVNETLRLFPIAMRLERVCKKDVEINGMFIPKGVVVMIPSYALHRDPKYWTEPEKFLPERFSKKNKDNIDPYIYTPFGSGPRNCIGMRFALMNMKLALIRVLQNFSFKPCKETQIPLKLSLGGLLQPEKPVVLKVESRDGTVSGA
Chain of CYP3A4 (P08684 whole entry): as above

The Ki is a dissociation constant, usually derived from enzyme kinetics or from competition with a known ligand. Regarding `O=C(Cc1cc2c(cc1Cl)OCO2)Nc1cc(-c2ccnc(Cl)c2)cs1` [Compound 105], the Ki at CYP2C9 is 1 to 10 µM; on CYP1A2, 1 to 10 µM; at CYP2D6 it was below 1 µM; on CYP2C19, below 1 µM; on CYP3A4 it was 1 to 10 µM; in assay [1], 1 to 10 µM. The same compound had a Ki on ROCK I (AA 6-553) below 0.1 µM.
